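Interpolation was linear, between the two tested concentrations surrounding the appropriate level; five concentrations were tested over 48 hours in 96-well plates. GI50 marks 50% less growth. Definition used: TGI = concentration required for complete inhibition of growth.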
How the values were obtained:
Assay in all cases: NCI-60 cell line screen, 48 h
OVCAR-8 ovarian = tested on: OVCAR-8 ovarian
HOP-92 NSCLC = tested on: HOP-92 NSCLC
KM12 colon = tested on: KM12 colon
A498 renal = tested on: A498 renal
RXF 393 renal = tested on: RXF 393 renal
U251 CNS = tested on: U251 CNS
A549 NSCLC = tested on: A549 NSCLC
SNB-19 CNS = tested on: SNB-19 CNS
NCI/ADR-RES ovarian = tested on: NCI/ADR-RES ovarian
DU-145 prostate = tested on: DU-145 prostate

Structure (SMILES) | TGI (OVCAR-8 ovarian) [µM] | TGI (HOP-92 NSCLC) [µM] | TGI (KM12 colon) [µM] | TGI (A498 renal) [µM] | TGI (RXF 393 renal) [µM] | TGI (U251 CNS) [µM] | TGI (A549 NSCLC) [µM] | TGI (SNB-19 CNS) [µM] | GI50 (OVCAR-8 ovarian) [µM] | GI50 (HOP-92 NSCLC) [µM] | GI50 (KM12 colon) [µM] | GI50 (A498 renal) [µM] | GI50 (RXF 393 renal) [µM] | GI50 (U251 CNS) [µM] | GI50 (NCI/ADR-RES ovarian) [µM] | TGI (NCI/ADR-RES ovarian) [µM] | GI50 (SNB-19 CNS) [µM] | GI50 (DU-145 prostate) [µM] | TGI (DU-145 prostate) [µM] | GI50 (A549 NSCLC) [µM]
Cc1oc2c(C)c3oc(=O)cc(C)c3cc2c1CNC(=O)[C@@H]1OCCOCCOCCOCCOCCOC1C(=O)O (stereo not given in full) | > 100 | > 100 | > 100 | > 100 | > 100 | > 100 | > 100 | > 100 |  |  |  |  |  |  |  |  |  |  |  | 
Clc1cc2c(cc1Cl)Oc1cc(Cl)c(Cl)cc1O2 | > 0.625 | > 0.625 | > 0.625 | > 0.625 | > 0.625 | > 0.625 |  | > 0.625 | > 0.625 | > 0.625 | > 0.625 | > 0.625 | > 0.625 | > 0.625 | > 0.625 | > 0.625 | > 0.625 | > 0.625 | > 0.625 | 
C=C(C)C1Cc2c(cc(OC)c3c(=O)c4cccc(O)c4oc23)O1 (stereo not given) | 59.5 |  | > 100 |  | 35.9 | 34.8 | 88.8 | 98.4 |  |  |  |  |  |  |  | > 100 |  |  | > 100 | 
CC1=C(/C=C/C(=O)O)C(C)(C)CCC1 | > 100 | > 100 |  | > 100 | > 100 | > 100 | > 100 | > 100 |  |  |  |  |  |  |  | > 100 |  |  | > 100 | 
O=C1C2C(C(=O)[N]1[Hg][c]1cccs1)C1(Cl)C(Cl)=C(Cl)C2(Cl)C1(Cl)Cl (stereo not given) |  | 3.03 | 24.3 | 6.05 | 3 | 1.68 | 16.7 | 3.4 |  | 1.58 | 11.7 | 2.29 | 1.5 | 0.466 | 2.07 | 4.8 | 1.72 | 1.8 | 4.72 | 5.94
CC1(Cl)CC2OC3(Br)C=CC(C)(O)C2(CC1Br)C3(C)C (stereo not given) | > 100 | > 100 | > 100 | > 100 | > 100 | > 100 | > 100 | > 100 |  |  |  |  |  |  |  |  |  |  |  | 
C/C(=N\NC(N)=S)c1cc(C)c(C)cc1C | > 100 | > 100 | 71.2 | > 100 | 97.2 | > 100 | > 100 |  |  |  |  |  |  |  |  |  |  |  |  | 
O=C(C=Nc1ccccc1C(=O)[O-])c1cccs1.O=C(C=Nc1ccccc1C(=O)[O-])c1cccs1.[Co+2] | > 100 | > 100 | > 100 | > 100 |  | > 100 | > 100 | > 100 |  |  |  |  |  |  |  |  |  |  |  | 
COc1ccc2c(c1O)C13CCN(C)C(C2)C1CCC1(C3)OCCO1 (stereo not given) | > 100 | > 100 | > 100 |  | > 100 | > 100 | > 100 | > 100 |  |  |  |  |  |  |  | > 100 |  |  | > 100 | 
CCN1/C(=C/C=C/c2n(-c3ccccc3)c3ccc(-c4nc5ccccc5s4)cc3[n+]2CC)N(c2ccccc2)c2ccc(-c3nc4ccccc4s3)cc21 | 5.82 |  | > 50 | 2.39 | 7.37 | 1.92 | > 26.1 | > 50 | 0.304 |  | 1.24 | 0.246 | 0.563 | 0.274 | 3.55 | > 50 | 0.369 | 0.374 | 2.49 | 0.284
COc1cc2c(cc1OCCCCCOc1cc3c(cc1OC)C(=O)N1CC(F)C[C@H]1C=N3)N=C[C@@H]1CC(F)CN1C2=O (stereo not given in full) | 2.06 |  | 1.15 | 0.217 |  | 0.235 | 2.87 | > 100 | 0.138 |  | 0.369 | 0.0863 |  | 0.0135 | 0.553 | 9.87 | 0.376 | 0.097 | 2.67 | 0.158
Cn1cc(C2=C(c3cn(CCO)c4ccccc34)C(=O)NC2=O)c2ccccc21 | > 21.9 |  | 9.4 | 7.78 | 9.54 | 13.7 | > 25 | > 25 | 5.48 |  | 2 | 1.45 | 3.22 | 1.98 | 5.6 | > 22 | 7.09 | 6.94 | > 23.8 | 3.05
C/C=C/C1=C(Cl)C(=O)[C@@H](Cl)[C@@]1(O)C(=O)OC | 6.45 | 6.22 | 22.2 | 14.3 | 4.76 | 18.8 | 24.3 | 19.9 |  |  |  |  |  |  |  | 6.23 |  |  |  | 
CC[O-].CC[O-].O=C([CH-]C(=O)c1cccnc1)c1ccccc1.O=C([CH-]C(=O)c1cccnc1)c1ccccc1.[Ti+4] | > 100 |  | > 100 | > 100 | 70.4 | > 100 | > 100 | > 100 | 26.2 |  | 32.7 | > 100 | 19.7 | 27.2 |  |  | 50 |  |  | > 100
[Cl][Sn]([Cl])([c]1ccccc1)[c]1ccccc1 | 27.8 | 6.36 | 39.1 |  |  | 28.6 | 39.2 | 27.7 | 14.4 | 3.02 | 19.6 |  | 2.79 | 13.4 |  |  | 14.6 |  |  | 19.8
Nc1nc2sc3ccccc3c(=O)n2n1 | > 100 | > 100 | > 100 |  | > 100 | > 100 | > 100 | > 100 |  |  |  |  |  |  |  |  |  |  |  | 
Cc1cc(Cl)cc2c(N=Nc3ccccc3[N+](=O)[O-])c(O)[nH]c12 |  | > 100 | > 100 | > 100 | > 100 | > 100 | > 100 | > 100 |  |  |  |  |  |  |  |  |  |  | > 100 | 
CN(C)CCN(C)CC1COC(C)(C)O1 (stereo not given) | > 100 | > 100 | > 100 | > 100 | > 100 | > 100 | > 100 | > 100 |  |  |  |  |  |  |  |  |  |  |  | 
COC(c1cccc(C(O)(C(F)(F)F)C(F)(F)F)c1)(C(F)(F)F)C(F)(F)F | 45.4 |  | 33.9 | 34.4 | 35.9 | 33.9 | 31.2 | 34.5 |  |  |  |  |  |  |  |  |  |  |  | 
